Assay: Compound was evaluated for its ability to inhibit the NNRTI HIV-1 enzyme by 50% using enzyme assay

`O=C1Nc2ccc(Cl)cc2[C@@](C#CC2CC2)(C(F)(F)F)N1` showed an IC50 of 31 nM.
